Test results: ChEMBL document CHEMBL5257041, “An exhaustive perspective on structural insights of SGLT2 inhibitors: A novel class of antidiabetic agent” (Eur J Med Chem, 2020)

Target: T1, Sodium/glucose cotransporter 2 (Homo sapiens, UniProt P31639)
T1 sequence (P31639 whole entry): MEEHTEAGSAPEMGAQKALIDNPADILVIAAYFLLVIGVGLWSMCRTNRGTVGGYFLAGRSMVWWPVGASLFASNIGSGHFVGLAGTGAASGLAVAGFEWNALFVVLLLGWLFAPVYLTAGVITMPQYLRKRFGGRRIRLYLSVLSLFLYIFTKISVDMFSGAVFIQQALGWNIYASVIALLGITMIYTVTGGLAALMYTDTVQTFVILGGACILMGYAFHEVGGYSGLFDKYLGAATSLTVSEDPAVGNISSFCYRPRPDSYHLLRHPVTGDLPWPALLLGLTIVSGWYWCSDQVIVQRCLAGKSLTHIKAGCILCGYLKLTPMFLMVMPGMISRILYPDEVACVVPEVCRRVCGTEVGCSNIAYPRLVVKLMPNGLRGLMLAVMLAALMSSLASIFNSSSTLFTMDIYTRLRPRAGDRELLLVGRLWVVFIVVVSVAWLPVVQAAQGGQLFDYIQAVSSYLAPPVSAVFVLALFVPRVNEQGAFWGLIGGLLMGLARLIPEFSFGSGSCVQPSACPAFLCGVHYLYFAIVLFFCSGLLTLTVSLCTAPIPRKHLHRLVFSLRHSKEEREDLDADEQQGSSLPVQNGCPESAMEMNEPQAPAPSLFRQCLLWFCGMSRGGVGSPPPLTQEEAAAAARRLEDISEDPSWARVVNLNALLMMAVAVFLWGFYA
Assay: Inhibition of human SGLT2

IC50: 0.35 nM
SMILES: CCc1ccc(Cc2cc([C@@H]3O[C@H](CO)C(F)(F)[C@H](O)[C@H]3O)ccc2Cl)cc1
